Tests used:
[1] = tested on: community-acquired methicillin-resistant Staphylococcus aureus CA-MRSA (USA300-0114); assay: Minimum inhibitory concentration (MIC), CA-MRSA; format: cell-based; details: MH media, 37° C., 72 hours, visual growth
Procedure: (§1) As used herein, the term “minimum inhibitory concentration (MIC)” refers to the lowest concentration of an antimicrobial agent that will inhibit the visible growth of a microorganism after overnight incubation. MIC values against bacteria, for example, the Gram-positive Staphylococcus aureus and Enterococcus faecalis and the Gram-negative Escherichia coli and Pseudomonas aeruginosa were determined by standard methods. See also P. A. Wayne, Methods for Dilution Antimicrobial Tests for Bacteria that Grow Aerobically; Approved Standard, Ninth Edition, 2012, CLSI Document M07-A9, Vol. 32 No. 2, which is incorporated by reference herein in its entirety.
(§2) For all biological assays, laboratory strains of methicillin-susceptible Staphylococcus aureus MSSA (SH1000), Enterococcus faecalis (OG1RF), Escherichia coli (MC4100), Pseudomonas aeruginosa (PAO1), community-acquired methicillin-resistant Staphylococcus aureus CA-MRSA (USA300-0114), and hospital-acquired methicillin-resistant Staphylococcus aureus HA-MRSA (ATCC 33591) were grown with shaking at 37° C. overnight from freezer stocks in 10 mL of the indicated media.
(§3) Compounds were serially diluted two-fold from stock solutions to yield twelve test concentrations. Overnight S. aureus, E. faecalis, E. coli, P. aeruginosa, USA300-0114 (CA-MRSA), and ATCC 33591 (HA-MRSA) cultures diluted to ca. 10^6 cfu/mL in MH media and 100 μL were inoculated into each well of a U-bottom 96-well plate (BD Biosciences, BD 351177) containing 100 μL of compound solution. Plates were incubated statically at 37° C. for 72 hours upon which time wells were evaluated visually for bacterial growth. The MIC was determined as the lowest concentration of compound resulting in no bacterial growth visible to the naked eye, based on the majority of three independent experiments. Aqueous DMSO controls were conducted as appropriate for each compound.

[2] = tested on: Escherichia coli (MC4100); assay: Minimum inhibitory concentration (MIC), E. coli; format: cell-based; details: MH media, 37° C., 72 hours, visual growth
Procedure: as §1, §2, §3

[3] = tested on: Pseudomonas aeruginosa (PAO1); assay: Minimum inhibitory concentration (MIC), P. aeruginosa; format: cell-based; details: MH media, 37° C., 72 hours, visual growth
Procedure: as §1, §2, §3

[4] = tested on: six bacteria (SA, EF, EC, PA, CA-MRSA, HA-MRSA); assay: Antimicrobial activity (MIC) over the panel of six bacteria; format: cell-based
Procedure: (§4) For the tris-pyridine system, it was initially attempted to alkylate the commercially available O3Pyr, which led to no reaction under a number of SN2-type reaction conditions, presumably due to steric hindrance next to the nucleophilic pyridine nitrogen. The preparation of the “para” isomer via a precedented reductive amination shown in FIG. 4 (52%) was then carried out (Oh et al., 2007, Korean Chem. Soc, 28: 2193-2194, Abdel-Magid et al., 1996, J. Org. Chem, 61: 3849-3862). […] Attempts to prepare homologs led to variable yields and unacceptable purity. While not wishing to be bound by any particular theory it was hypothesized that this could have resulted from a fragmentation event driven by the central nitrogen, which might be circumvented by a change in the electronic distribution of the QAC. […] These amphiphiles were prepared in 71-97% yields, again after recrystallization or trituration. […]
Compounds were serially diluted two-fold from stock solutions to yield twelve test concentrations. […] Plates were incubated statically at 37° C. for 72 hours upon which time wells were evaluated visually for bacterial growth. The MIC was determined as the lowest concentration of compound resulting in no bacterial growth visible to the naked eye, based on the majority of three independent experiments. […]

[5] = tested on: hospital-acquired methicillin-resistant Staphylococcus aureus HA-MRSA (ATCC 33591); assay: microbe, parasite or virus in culture; format: cell-based; details: Staphylococcus aureus, 72 h, read-out: MIC, HA-MRSA
Procedure: as §1, §2, §3

[6] = tested on: methicillin-susceptible Staphylococcus aureus MSSA (SH1000); assay: Minimum inhibitory concentration (MIC), S. aureus; format: cell-based; details: MH media, 37° C., 72 hours, visual growth
Procedure: as §1, §2, §3

[7] = tested on: Enterococcus faecalis (OG1RF); assay: Minimum inhibitory concentration (MIC), E. faecalis; format: cell-based; details: MH media, 37° C., 72 hours, visual growth
Procedure: as §1, §2, §3

[8] = tested on: red blood cells (mechanically defibrinated sheep blood); assay: Red blood cell (RBC) lysis assay (Lysis20); format: cell-based; details: sheep RBCs in PBS, 37° C., 1 hour, absorbance 540 nm; Table 1
Description: These assessments followed standard protocols (Minbiole et al., 2016, Tetrahedron, 72: 3559-3566, Forman et al., 2016, ChemMedChem, 11: 1401-1405, Forman et al., 2016, ChemMedChem, 11: 958-962, Mitchell et al., 2015, ChemBioChem, 16: 2299-2303, Jennings et al., 2015, ACS Inf. Dis, 1: 304-308, Paniak et al., 2014, Bioorg. Med. Chem. Lett, 24: 5824-5828, Ator et al., 2014, Bioorg. Med. Chem. Lett, 24: 3706-3709, Jennings et al., 2014, ChemBioChem, 15: 2211-2215, Black et al., 2014, Bioorg. Med. Chem. Lett, 24, 99-102, Grenier et al., 2012, Bioorg. Med. Chem. Lett, 22: 4055-4058).
RBC lysis assays were performed on mechanically defibrinated sheep blood (Hemostat Labs: DSB030). 1.5 mL of blood was placed into a microcentrifuge tube and centrifuged at 10,000 rpm for ten minutes. The supernatant was removed and the cells were resuspended with 1 mL of phosphate-buffered saline (PBS). The suspension was centrifuged as previously, the supernatant was removed, and cells were resuspended two more times. The final cell suspension was diluted twentyfold with PBS. The twentyfold suspension dilution was then aliquoted into microcentrifuge tubes containing compound serially diluted in PBS. TritonX (1% by volume) served as a positive control (100% lysis marker) and sterile PBS served as a negative control (0% lysis marker). Samples were then placed in an incubator at 37° C. and shaken at 200 rpm. After 1 hour, the samples were centrifuged at 10,000 rpm for ten minutes. The absorbance of the supernatant was measured with a UV spectrometer at a 540 nm wavelength.

[9] = Stability of the prepared amphiphiles; format: physicochemical; details: observation after preparation
Procedure: as §4

Structure (SMILES) | MIC [1] [µM] | MIC [2] [µM] | MIC [3] [µM] | antimicrobial activity / bioactivity in words [4] | MIC [5] [µM] | MIC [6] [µM] | MIC [7] [µM] | Lysis20 (highest concentration at which <20% of RBCs are lysed) [8] [μm] | stability [9]
CCCCCCCCCCC[n+]1ccc(CCCc2cc[n+](CCCCCCCCCCC)cc2)cc1 [2Pyr-11,11] | 0.25 | 0.5 | 2 | nanomolar inhibition against 5 of 6 bacteria tested | 0.5 | 0.5 | 0.25 | 8 | 
CCCCCCCCCC[n+]1ccc(CN(Cc2cc[n+](CCCCCCCCCC)cc2)Cc2cc[n+](CCCCCCCCCC)cc2)cc1 [P3Pyr-10,10,10] | 0.5 | 1 | 2 |  | 0.5 | 0.5 | 1 | 4 | poor stability
CCCCCCCCCCCC[n+]1ccc(CN(Cc2cc[n+](CCCCCCCCCCCC)cc2)Cc2cc[n+](CCCCCCCCCCCC)cc2)cc1 [P3Pyr-12,12,12] | 1 | 2 | 8 |  | 2 | 2 | 2 | 8 | poor stability

Source: patent publication US12459898B2, “Polycationic amphiphiles as antimicrobial agents and methods using same” (Temple University-Of The Commonwealth System of Higher …, priority 2016, dated 2025)
